Experimental data reported in ChEMBL document CHEMBL5653631, “A Potent and Selective ULK1 Inhibitor Suppresses Autophagy and Sensitizes Cancer Cells to Nutrient Stress” (iScience, 2018).
Blank lines part the entries; values can stand above or below the molecule they belong to.

Columns and labels:
[1] = target: Insulin-like growth factor 1 receptor (Homo sapiens) (UniProt P08069); assay: Inhibition of human recombinant IGF1R at 500 nM related to control ULK1
[2] = target: Serine/threonine-protein kinase PRP4 homolog (Homo sapiens) (UniProt Q13523); assay: Inhibition of human recombinant PRP4 at 500 nM related to control ULK1
[3] = target: T1, Mitogen-activated protein kinase 12 (Homo sapiens) (UniProt P53778); assay: Inhibition of human recombinant p38gamma at 500 nM in presence of ATP by radiometric assay relative to control
T1 sequence (whole entry): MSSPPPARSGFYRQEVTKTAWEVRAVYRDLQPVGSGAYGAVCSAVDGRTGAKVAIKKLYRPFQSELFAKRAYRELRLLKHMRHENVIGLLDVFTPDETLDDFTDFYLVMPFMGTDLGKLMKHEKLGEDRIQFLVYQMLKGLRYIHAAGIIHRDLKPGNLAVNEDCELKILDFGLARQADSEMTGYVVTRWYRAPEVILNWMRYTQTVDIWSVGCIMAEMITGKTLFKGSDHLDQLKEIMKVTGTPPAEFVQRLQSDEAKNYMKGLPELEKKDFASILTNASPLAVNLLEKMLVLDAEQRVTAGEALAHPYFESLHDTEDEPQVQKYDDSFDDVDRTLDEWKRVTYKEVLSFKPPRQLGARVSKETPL

[4] = target: T2, Ephrin type-A receptor 3 (Homo sapiens) (UniProt P29320); assay: Inhibition of human recombinant EphA3 at 500 nM related to control ULK1
T2 sequence (whole entry): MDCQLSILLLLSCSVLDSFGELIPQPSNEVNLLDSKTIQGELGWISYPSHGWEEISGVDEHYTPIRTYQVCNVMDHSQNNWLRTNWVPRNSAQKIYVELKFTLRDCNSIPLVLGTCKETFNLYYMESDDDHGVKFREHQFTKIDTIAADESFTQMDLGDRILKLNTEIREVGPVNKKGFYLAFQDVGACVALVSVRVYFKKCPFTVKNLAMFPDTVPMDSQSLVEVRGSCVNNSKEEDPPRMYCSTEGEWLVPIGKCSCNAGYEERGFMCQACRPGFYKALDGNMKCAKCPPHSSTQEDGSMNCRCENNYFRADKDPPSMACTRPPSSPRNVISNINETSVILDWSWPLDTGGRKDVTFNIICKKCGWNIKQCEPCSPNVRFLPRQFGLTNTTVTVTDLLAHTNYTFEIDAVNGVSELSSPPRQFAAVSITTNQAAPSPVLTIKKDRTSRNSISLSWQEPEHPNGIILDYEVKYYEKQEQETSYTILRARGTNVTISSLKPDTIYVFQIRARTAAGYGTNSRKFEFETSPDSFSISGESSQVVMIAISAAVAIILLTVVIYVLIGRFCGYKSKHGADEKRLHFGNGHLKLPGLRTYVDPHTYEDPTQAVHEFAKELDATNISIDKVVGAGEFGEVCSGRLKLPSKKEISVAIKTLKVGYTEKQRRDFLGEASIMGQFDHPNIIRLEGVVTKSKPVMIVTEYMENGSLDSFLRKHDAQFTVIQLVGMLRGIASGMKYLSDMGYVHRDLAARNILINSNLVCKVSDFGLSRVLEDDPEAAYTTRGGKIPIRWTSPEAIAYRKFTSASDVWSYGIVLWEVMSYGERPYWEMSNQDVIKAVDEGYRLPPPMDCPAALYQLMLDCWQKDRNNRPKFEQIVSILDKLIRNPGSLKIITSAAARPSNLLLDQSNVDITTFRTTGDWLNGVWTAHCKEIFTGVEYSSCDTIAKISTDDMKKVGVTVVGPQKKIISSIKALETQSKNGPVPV

[5] = target: Casein kinase I isoform gamma-2 (Homo sapiens) (UniProt P78368); assay: Inhibition of human recombinant CK1g2 at 500 nM related to control ULK1
[6] = target: Serine/threonine-protein kinase NIM1 (Homo sapiens) (UniProt Q8IY84); assay: Inhibition of human recombinant NIM1 at 500 nM related to control ULK1
[7] = target: STE20-like serine/threonine-protein kinase (Homo sapiens) (UniProt Q9H2G2); assay: Inhibition of human recombinant SLK at 40 nM related to control ULK1
[8] = target: Serine/threonine-protein kinase PAK 5 (Homo sapiens) (UniProt Q9P286); assay: Inhibition of human recombinant PAK5 at 40 nM in presence of ATP by radiometric assay relative to control
[9] = target: T3, Mitogen-activated protein kinase 13 (Homo sapiens) (UniProt O15264); assay: Inhibition of human recombinant p38delta at 40 nM related to control ULK1
T3 sequence (whole entry): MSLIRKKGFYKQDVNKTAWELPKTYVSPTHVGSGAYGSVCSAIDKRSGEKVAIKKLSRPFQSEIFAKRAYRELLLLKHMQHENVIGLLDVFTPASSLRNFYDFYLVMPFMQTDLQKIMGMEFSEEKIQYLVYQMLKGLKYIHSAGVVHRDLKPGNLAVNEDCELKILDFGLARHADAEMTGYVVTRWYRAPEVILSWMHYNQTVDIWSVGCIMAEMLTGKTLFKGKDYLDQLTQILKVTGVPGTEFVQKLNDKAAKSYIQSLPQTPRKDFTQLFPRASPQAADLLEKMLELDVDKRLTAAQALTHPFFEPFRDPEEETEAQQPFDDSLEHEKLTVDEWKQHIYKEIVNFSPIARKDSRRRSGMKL

[10] = target: G protein-coupled receptor kinase 6 (Homo sapiens) (UniProt P43250); assay: Inhibition of human recombinant GPRK6 at 15 nM in presence of ATP by radiometric assay relative to control
[11] = target: Tyrosine-protein kinase Fgr (Homo sapiens) (UniProt P09769); assay: Inhibition of human recombinant FGR at 15 nM in presence of ATP by radiometric assay relative to control
[12] = target: Cyclin-dependent kinase 5 (Homo sapiens) (UniProt Q00535); assay: Inhibition of human recombinant CDK5 at 15 nM related to control ULK1
Cyclin-dependent kinase 5 (Homo sapiens), sequence (Q00535 whole entry, looked up): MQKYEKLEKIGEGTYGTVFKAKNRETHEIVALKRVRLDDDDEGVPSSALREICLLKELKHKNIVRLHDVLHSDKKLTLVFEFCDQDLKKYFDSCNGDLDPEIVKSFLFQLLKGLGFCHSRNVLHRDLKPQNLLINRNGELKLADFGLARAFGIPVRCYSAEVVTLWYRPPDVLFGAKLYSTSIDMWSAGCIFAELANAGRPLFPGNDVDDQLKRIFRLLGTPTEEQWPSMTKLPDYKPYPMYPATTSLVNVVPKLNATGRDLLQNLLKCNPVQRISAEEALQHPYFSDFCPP

Serine/threonine-protein kinase PAK 5 (Homo sapiens), sequence (Q9P286 whole entry, looked up): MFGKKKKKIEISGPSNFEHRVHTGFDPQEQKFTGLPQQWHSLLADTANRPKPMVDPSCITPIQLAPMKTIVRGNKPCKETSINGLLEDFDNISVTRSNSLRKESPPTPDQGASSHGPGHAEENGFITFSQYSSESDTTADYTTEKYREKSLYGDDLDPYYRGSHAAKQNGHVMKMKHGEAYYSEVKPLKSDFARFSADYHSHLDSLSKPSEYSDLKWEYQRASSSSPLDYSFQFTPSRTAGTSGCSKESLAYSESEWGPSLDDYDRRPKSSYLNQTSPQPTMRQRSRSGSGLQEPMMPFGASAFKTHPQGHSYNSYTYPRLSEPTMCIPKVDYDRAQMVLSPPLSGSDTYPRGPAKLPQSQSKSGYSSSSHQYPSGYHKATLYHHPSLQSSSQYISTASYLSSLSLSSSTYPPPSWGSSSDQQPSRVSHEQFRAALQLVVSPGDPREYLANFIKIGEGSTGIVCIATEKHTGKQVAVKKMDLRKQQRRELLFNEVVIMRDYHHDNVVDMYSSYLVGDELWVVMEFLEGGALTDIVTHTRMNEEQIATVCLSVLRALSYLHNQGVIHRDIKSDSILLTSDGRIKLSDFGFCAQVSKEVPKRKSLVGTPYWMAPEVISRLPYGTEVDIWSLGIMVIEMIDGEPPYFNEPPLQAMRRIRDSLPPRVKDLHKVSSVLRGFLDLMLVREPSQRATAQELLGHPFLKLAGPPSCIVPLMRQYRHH
Serine/threonine-protein kinase NIM1 (Homo sapiens), sequence (Q8IY84 whole entry): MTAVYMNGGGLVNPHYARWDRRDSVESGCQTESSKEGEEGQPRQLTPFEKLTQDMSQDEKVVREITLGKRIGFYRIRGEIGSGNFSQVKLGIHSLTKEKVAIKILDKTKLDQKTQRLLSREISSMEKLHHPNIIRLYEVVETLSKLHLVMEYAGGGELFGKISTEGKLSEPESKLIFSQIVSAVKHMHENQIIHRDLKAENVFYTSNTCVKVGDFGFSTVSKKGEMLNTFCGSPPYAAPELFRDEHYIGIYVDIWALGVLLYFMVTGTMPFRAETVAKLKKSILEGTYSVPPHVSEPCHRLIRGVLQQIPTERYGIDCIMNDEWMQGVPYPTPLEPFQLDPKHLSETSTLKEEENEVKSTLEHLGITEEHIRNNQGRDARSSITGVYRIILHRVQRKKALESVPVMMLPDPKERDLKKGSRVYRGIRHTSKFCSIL
Insulin-like growth factor 1 receptor (Homo sapiens), sequence (P08069 31-736 limits assumed): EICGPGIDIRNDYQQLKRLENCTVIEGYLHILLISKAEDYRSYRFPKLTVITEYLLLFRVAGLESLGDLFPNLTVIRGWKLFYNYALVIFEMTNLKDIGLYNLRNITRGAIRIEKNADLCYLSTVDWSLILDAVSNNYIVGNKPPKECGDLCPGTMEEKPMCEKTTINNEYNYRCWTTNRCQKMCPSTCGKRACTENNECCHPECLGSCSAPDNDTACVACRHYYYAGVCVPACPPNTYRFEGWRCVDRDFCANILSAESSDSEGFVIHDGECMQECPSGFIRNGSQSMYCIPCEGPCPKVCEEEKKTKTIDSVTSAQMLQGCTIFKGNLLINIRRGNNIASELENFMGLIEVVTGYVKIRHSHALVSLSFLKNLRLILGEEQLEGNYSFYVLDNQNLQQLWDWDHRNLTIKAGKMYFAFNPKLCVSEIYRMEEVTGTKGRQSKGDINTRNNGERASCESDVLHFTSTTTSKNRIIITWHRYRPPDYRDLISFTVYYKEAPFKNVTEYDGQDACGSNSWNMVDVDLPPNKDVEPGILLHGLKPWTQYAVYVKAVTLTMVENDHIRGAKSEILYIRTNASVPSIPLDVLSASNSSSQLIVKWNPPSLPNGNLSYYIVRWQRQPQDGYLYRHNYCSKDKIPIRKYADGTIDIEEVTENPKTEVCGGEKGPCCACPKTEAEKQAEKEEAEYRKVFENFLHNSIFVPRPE
Insulin-like growth factor 1 receptor (Homo sapiens), sequence (P08069 741-1367 limits assumed): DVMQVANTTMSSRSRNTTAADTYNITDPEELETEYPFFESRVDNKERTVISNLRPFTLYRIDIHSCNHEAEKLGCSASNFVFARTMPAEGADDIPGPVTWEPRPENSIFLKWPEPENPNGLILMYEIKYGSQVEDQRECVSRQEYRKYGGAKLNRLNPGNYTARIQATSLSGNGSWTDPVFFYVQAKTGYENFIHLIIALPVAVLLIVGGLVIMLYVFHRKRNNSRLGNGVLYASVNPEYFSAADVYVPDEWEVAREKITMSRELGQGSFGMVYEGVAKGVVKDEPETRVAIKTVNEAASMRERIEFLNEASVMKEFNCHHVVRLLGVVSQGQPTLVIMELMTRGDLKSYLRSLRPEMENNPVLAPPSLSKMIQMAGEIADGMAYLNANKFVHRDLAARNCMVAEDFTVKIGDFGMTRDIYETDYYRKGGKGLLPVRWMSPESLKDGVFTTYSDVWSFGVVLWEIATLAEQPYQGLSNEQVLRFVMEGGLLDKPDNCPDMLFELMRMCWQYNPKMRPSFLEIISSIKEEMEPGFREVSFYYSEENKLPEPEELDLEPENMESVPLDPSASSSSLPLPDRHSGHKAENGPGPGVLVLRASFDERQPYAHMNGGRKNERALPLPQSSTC
STE20-like serine/threonine-protein kinase (Homo sapiens), sequence (Q9H2G2 whole entry, looked up): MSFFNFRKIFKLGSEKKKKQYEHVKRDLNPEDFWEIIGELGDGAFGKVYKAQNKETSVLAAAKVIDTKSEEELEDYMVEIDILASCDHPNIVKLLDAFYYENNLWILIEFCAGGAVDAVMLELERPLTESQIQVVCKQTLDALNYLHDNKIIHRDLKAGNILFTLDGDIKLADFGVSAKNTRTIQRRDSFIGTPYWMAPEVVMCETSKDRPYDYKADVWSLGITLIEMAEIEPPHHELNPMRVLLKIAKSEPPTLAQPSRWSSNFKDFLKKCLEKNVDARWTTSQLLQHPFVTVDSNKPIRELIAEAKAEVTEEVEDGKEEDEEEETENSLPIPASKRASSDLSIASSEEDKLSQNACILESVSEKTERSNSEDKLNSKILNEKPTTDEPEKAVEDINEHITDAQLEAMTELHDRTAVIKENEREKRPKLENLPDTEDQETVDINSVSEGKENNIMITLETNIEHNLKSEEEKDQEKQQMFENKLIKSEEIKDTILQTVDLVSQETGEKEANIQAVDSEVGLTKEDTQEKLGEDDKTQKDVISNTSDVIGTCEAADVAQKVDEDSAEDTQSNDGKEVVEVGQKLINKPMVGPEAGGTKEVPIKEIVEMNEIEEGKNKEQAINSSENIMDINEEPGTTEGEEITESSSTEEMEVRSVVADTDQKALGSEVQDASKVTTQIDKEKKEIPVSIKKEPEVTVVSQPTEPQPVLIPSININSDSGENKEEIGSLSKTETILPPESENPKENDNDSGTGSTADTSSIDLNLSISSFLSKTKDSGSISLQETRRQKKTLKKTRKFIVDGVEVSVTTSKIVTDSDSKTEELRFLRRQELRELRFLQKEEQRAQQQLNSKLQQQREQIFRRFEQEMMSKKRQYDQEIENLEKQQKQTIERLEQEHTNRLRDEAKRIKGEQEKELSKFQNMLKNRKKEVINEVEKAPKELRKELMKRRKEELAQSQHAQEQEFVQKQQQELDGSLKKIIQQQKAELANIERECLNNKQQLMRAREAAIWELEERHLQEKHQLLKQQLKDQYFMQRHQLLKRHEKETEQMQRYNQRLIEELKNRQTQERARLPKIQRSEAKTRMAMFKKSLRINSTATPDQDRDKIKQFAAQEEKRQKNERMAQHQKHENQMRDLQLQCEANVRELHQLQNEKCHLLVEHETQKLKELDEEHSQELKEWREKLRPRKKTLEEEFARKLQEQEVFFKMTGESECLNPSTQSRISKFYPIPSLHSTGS
Casein kinase I isoform gamma-2 (Homo sapiens), sequence (P78368 whole entry, looked up, canonical isoform): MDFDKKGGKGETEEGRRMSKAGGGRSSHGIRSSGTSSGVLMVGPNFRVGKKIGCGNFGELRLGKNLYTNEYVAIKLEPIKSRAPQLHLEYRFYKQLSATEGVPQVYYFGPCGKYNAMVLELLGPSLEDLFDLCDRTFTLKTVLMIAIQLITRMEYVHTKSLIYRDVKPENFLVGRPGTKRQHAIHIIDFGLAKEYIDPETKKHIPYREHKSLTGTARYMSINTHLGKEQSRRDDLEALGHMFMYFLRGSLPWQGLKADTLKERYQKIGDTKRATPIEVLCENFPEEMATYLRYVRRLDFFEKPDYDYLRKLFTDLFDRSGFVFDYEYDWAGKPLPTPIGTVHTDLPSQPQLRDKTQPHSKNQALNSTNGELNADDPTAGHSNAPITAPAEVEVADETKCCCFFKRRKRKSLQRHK
Tyrosine-protein kinase Fgr (Homo sapiens), sequence (P09769 2-529 limits assumed): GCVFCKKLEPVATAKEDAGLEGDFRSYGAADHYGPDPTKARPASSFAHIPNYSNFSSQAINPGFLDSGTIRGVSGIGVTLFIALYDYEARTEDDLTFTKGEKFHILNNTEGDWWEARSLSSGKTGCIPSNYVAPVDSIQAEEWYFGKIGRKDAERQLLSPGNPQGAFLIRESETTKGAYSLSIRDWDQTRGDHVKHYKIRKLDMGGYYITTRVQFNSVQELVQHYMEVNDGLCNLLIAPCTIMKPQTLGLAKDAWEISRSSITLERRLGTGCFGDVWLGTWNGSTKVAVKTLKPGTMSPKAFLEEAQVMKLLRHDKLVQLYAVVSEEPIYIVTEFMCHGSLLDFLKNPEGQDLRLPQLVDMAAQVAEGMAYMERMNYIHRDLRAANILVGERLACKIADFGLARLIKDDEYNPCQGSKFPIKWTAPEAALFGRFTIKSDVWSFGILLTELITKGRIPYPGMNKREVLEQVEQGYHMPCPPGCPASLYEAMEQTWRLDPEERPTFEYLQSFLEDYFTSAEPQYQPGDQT

fold change (FC) [1]: 0.04
fold change (FC) [2]: 0.03
inhibition [3]: 0%
fold change (FC) [4]: 0.15
fold change (FC) [5]: 0
fold change (FC) [6]: 0
SMILES: CNC(=O)c1ccccc1Oc1nc(Nc2cc(OC)c(OC)c(OC)c2)ncc1Br

fold change (FC) [7]: 0
inhibition [8]: 0%
fold change (FC) [9]: 0.16
SMILES: O=C(N[C@@H](C1CC1)C(F)(F)F)c1cc(-c2cnn3cc(-c4ccc(F)cc4)cnc23)cs1

inhibition [10]: 0%
inhibition [11]: 43%
fold change (FC) [12]: 0.26
SMILES: CC(C)[C@H](NC(=O)c1cc(-c2cnn3cc(-c4ccc(OCCN5CCCCC5)cc4)cnc23)cs1)C(F)(F)F
